In BindingDB's records for doi:10.1016/j.chembiol.2010.06.007 (Stanford School of Medicine, 2010):

biological target: Dipeptidyl aminopeptidase 1 (Plasmodium falciparum); test: DPAP1 inhibtion was measured using DPAP1-specific fluorogenic assay. IC50 DPAP1 were determined after 30 min incubation of parasite lysates with 5 nM to 100 mM inhibitor. ki values were obtained by fitting the data to Equation 1.

SMILES	IC50 [nM]
CCCCC(C(=O)COc1c(F)c(F)cc(F)c1F)n1cc(C2(N)CCCCC2)nn1 (configuration not stated) [HN3019]	560
CCCCC(C(=O)COc1c(F)c(F)cc(F)c1F)n1cc([C@@](C)(N)C2CCCCC2)nn1 (some centres not stated) [ML4046A]	700
CCCCC(C(=O)COc1c(F)c(F)cc(F)c1F)n1cc([C@](C)(N)C2CCCCC2)nn1 (some centres not stated) [ML4046B]	> 20000
CCCCC(C(=O)COc1c(F)c(F)cc(F)c1F)n1cc(C(C)(N)Cc2ccccc2)nn1 (configuration not stated) [ML4053]	> 100000
CCCCC(C(=O)COc1c(F)c(F)cc(F)c1F)n1cc(C(C)N)nn1 (configuration not stated) [ML4057]	700
CCCCC(C(=O)COc1c(F)c(F)cc(F)c1F)n1cc(C(C)(C)N)nn1 (configuration not stated) [ML4066]	1100
CCCCC(C(=O)COc1c(F)c(F)cc(F)c1F)n1cc(C(N)Cc2ccccc2)nn1 (configuration not stated) [ML4068]	74000
CCCCC(C(=O)COC(=O)c1c(C)cccc1C)n1cc(C2(N)CCCCC2)nn1 (configuration not stated) [ML4091]	11000
CCCCC(C#N)n1cc(C2(N)CCCCC2)nn1 (configuration not stated) [ML4101]	> 100000
CCCCC(C(=O)COc1c(F)c(F)cc(F)c1F)n1cc(C(C)(N)CCC)nn1 (configuration not stated) [ML4123]	410
CCCCC(C(=O)COc1c(F)c(F)cc(F)c1F)n1cc(C(N)(CCC)CCC)nn1 (configuration not stated) [ML4124]	700
CCCCC(C(=O)COc1c(F)c(F)cc(F)c1F)n1cc(C2(N)CCN(C(N)=O)CC2)nn1 (configuration not stated) [ML4154]	> 20000
CCCCC(C(=O)COc1c(F)c(F)cc(F)c1F)n1cc(C(N)(CC)CC)nn1 (configuration not stated) [ML4161]	410
CCCCC(C(=O)COc1c(F)c(F)cc(F)c1F)n1cc(C2(N)CCNCC2)nn1 (configuration not stated) [ML4162]	> 20000
CCCCC(C(=O)COc1c(F)c(F)cc(F)c1F)n1cc(C2(N)CCN(C(C)=O)CC2)nn1 (configuration not stated) [ML4163]	> 20000
CCCCC(C(=O)COc1c(F)c(F)cc(F)c1F)n1cc(C(CCC)(CCC)NC)nn1 (configuration not stated) [ML5004]	7700
CCCCC(C(=O)COc1c(F)c(F)cc(F)c1F)n1cc(C2(C)CCCN2)nn1 (configuration not stated) [ML6076]	420
